Measured values from patent publication US20240002375A1, “2-(INDAZOL-5-YL)-6-(PIPERIDIN-4-YL)-1,7-NAPHTHYRIDINE DERIVATIVES AND RELATED COMPOUNDS AS MODULATORS FOR SPLICING NUCLEIC ACIDS AND FOR THE TRE” (REMIX THERAPEUTICS INC., priority 2020, published 2024).
pIC50: −log10 of the molar value.

Tests used:
Type in all cases: cell-based
HTT mRNA = assay: Splicing assay (RT-qPCR) of HTT mRNA alternative junction (AJ) and canonical junction (CJ); settings: A673 or K562 cells, 24 hours; for pIC50: decrease in CJ mRNA, read-out: HTT CJ IC50; for AC50: increase in AJ mRNA, read-out: HTT AJ AC50
Description: Compounds described herein were used to modulate RNA transcript abundance in cells. The expression of a target mRNA was measured by detecting the formation of an exon-exon junction in the canonical transcript (CJ). A compound mediated exon-inclusion event was detected by observing an increase in formation of a new junction with an alternative exon (AJ). Real-time qPCR assays were used to detect these splicing switches and interrogate the potency of various compounds towards different target genes. A high-throughput real time quantitative PCR (RT-qPCR) assay was developed to measure these two isoforms of the mRNA (CJ and AJ) for an exemplary gene, HTT, together with a control housekeeping gene, GAPDH or GUSB or PPIA, used for normalization. Briefly, the A673 or K562 cell line was treated with various compounds described herein (e.g., compounds of Formula (I) or (II)). After treatment, the levels of the HTT mRNA targets were determined from each sample of cell lysate by cDNA synthesis followed by qPCR.
Materials: • Cells-to-CT 1-step kit: ThermoFisher A25602, Cells-to-CT lysis reagent: ThermoFisher 4391851C, TagMan™ Fast Virus 1-Step Master Mix: ThermoFisher 4444436 • GAPDH: VIC-PL, ThermoFisher 4326317E (Assay: Hs99999905_ml)—used for K562/suspension cell lines • GUSB: VIC-PL, ThermoFisher 4326320E (Assay: Hs99999908 ml)—used for K562/suspension cell lines • PPIA: VIC-PL, ThermoFisher 4326316E (Assay: Hs99999904 ml)—used for A673/adherent cell lines
The A673 cell line was cultured in DMEM with 10% FBS. Cells were diluted with full growth media and plated in a 96-well plate (15,000 cells in 100 ul media per well). The plate was incubated at 37° C. with 5% CO2 for 24 hours to allow cells to adhere. An 11-point 3-fold serial dilution of the compounds was made in DMSO then diluted in media in an intermediate plate. Compounds were transferred from the intermediate plate to the cell plate with the top dose at a final concentration of 10 uM in the well. Final DMSO concentration was kept at or below 0.25%. The cell plate was returned to the incubator at 37° C. with 5% CO2 for an additional 24 hours.
The K562 cell line was cultured in IMDM with 10% FBS. For K562, cells were diluted with full growth media and plated in either a 96-well plate (50,000 cells in 50 uL media per well) or a 384-well plate (8,000-40,000 cells in 45 uL media per well). An 11-point 3-fold serial dilution of the compounds were made in DMSO then diluted in media in an intermediate plate. Compound was transferred from the intermediate plate to the cell plate with the top dose at a final concentration of 10 uM in the well. Final DMSO concentration was kept at or below 0.25%. Final volume was 100 uL for 96-well plate and 50 uL for 384-well plate. The cell plate was then placed in an incubator at 37° C. with 5% CO2 for 24 hours.
The cells were then gently washed with 50 uL-100 uL cold PBS before proceeding to addition of lysis buffer. 30 uL-50 uL of room temperature lysis buffer with DNAse I (and optionally RNAsin) was added to each well. Cells were shaken/mixed thoroughly at room temperature for 5-10 minutes for lysis to take place and then 3 uL-5 uL of room temperature stop solution was added and wells were shaken/mixed again. After 2-5 minutes, the cell lysate plate was transferred to ice for RT-qPCR reaction setup. The lysates could also be frozen at −80° C. for later use.
In some cases, a direct lysis buffer was used. An appropriate volume of 3X lysis buffer (10 mM Tris, 150 mM NaCl, 1.5%-2.5% Igepal and 0.1-1 U/uL RNAsin, pH 7.4) was directly added to either K562 or A673 cells in media and mixed by pipetting 3 times. The plates were then incubated at room temperature with shaking/rocking for 20-50 minutes to allow for lysis to take place. After this time, the cell lysate plate was transferred to ice to set up for the RT-qPCR reactions. The lysates could also be frozen at −80° C. for later use. […]

HTT CJ mRNA = assay: Gene panel canonical junction qPCR splicing assay, HTT; settings: Table 4, read-out: HTT IC50 (decrease in CJ mRNA levels)
Description: (§1) Compounds described herein were used to modulate RNA transcript abundance in cells. The expression of a target mRNA was measured by detecting the formation of an exon-exon junction in the canonical transcript (CJ). A compound mediated exon-inclusion event was detected by observing an increase in formation of a new junction with an alternative exon (AJ). Real-time qPCR assays were used to detect these splicing switches and interrogate the potency of various compounds towards different target genes. A high-throughput real time quantitative PCR (RT-qPCR) assay was developed to measure these two isoforms of the mRNA (CJ and AJ) for an exemplary gene, HTT, together with a control housekeeping gene, GAPDH or GUSB or PPIA, used for normalization. Briefly, the A673 or K562 cell line was treated with various compounds described herein (e.g., compounds of Formula (I) or (II)). After treatment, the levels of the HTT mRNA targets were determined from each sample of cell lysate by cDNA synthesis followed by qPCR. The data analysis was performed by first determining the ΔCt vs the housekeeper gene. This ΔCt was then normalized against the DMSO control (ΔΔCt) and converted to RQ (relative quantification) using the 2^(−ΔΔCt) equation. The RQ were then converted to a percentage response by arbitrarily setting an assay window of 3.5 ΔCt for HTT-CJ and an assay window of 9 ΔCt for HTT-AJ. […] The percentage response was then fitted to the 4 parametric logistic equation to evaluate the concentration dependence of compound treatment. The increase in AJ mRNA is reported as AC50 (compound concentration having 50% response in AJ increase) while the decrease in CJ mRNA levels is reported as IC50 (compound concentration having 50% response in CJ decrease). Additional studies were carried out for a larger panel of genes using the protocol provided above. The junction between flanking upstream and downstream exons was used to design canonical junction qPCR assays. At least one of the forward primer, reverse primer or the CY5-labeled 5′ nuclease probe (with 3′ quencher such as ZEN/Iowa Black FQ) was designed to overlap with the exon junction to capture the CJ mRNA transcript. BLAST was used to confirm the specificity of the probeset and parameters such as melting temperature, GC content, amplicon size, and primer dimer formation are considered during their design. Data for the decrease in CJ mRNA levels for three exemplary genes (HTT, SMN2, and Target C) analyzed in this panel are reported as IC50 (compound concentration having 50% response in CJ decrease).

SMN2 CJ mRNA = assay: Gene panel canonical junction qPCR splicing assay, SMN2; settings: Table 4, read-out: SMN2 IC50 (decrease in CJ mRNA levels)
Description: as §1

Target C CJ mRNA = assay: Gene panel canonical junction qPCR splicing assay, Target C; settings: Table 4, read-out: Target C IC50 (decrease in CJ mRNA levels)
Description: as §1

SMILES	pIC50 (HTT mRNA)	AC50 (HTT mRNA)	pIC50 (HTT CJ mRNA)	pIC50 (SMN2 CJ mRNA)	pIC50 (Target C CJ mRNA)
Cc1c(O)c(-c2ccc3nc(N4CCC(NC5(C)CC5)C4)ccc3n2)cc2cn(C)nc12 (racemic) [Compound 224, 2,7-dimethyl-5-(6-{3-[(1-methylcyclopropyl)amino]pyrrolidin-1-yl}-1,5-naphthyridin-2-yl) indazol-6-ol]	> 7.00	< 100 nM	> 7.00	> 7.00	> 7.00
C[C@H]1C[C@H](c2ccc3nc(-c4cc5cn(C)nc5cc4O)ccc3n2)CCN1 (relative stereo) [Compound 139, 2-methyl-5-[6-[(2S,4R)-2-methylpiperidin-4-yl]-1,5-naphthyridin-2-yl]indazol-6-ol]	> 7.00	< 100 nM	> 7.00	> 7.00	6.00 to 7.00
C[C@H]1C[C@@H](c2ccc3nc(-c4cc5cn(C)nc5cc4O)ccc3n2)CCN1 (relative stereo) [Compound 140, 2-methyl-5-[6-[(2S,4S)-2-methylpiperidin-4-yl]-1,5-naphthyridin-2-yl]indazol-6-ol]	> 7.00	100 to 1000 nM	> 7.00	> 7.00	6.00 to 7.00
Cc1nc2cc(O)c(-c3ccc4nc(N5CC[C@H](NC6CC6)C5)ccc4n3)cc2o1 (single isomer, unassigned) [Compound 211, 6-{6-[3-(cyclopropylamino)pyrrolidin-1-yl]-1,5-naphthyridin-2-yl}-2-methyl-1,3-benzoxazol-5-ol]	> 7.00	< 100 nM	> 7.00	> 7.00	6.00 to 7.00
Cc1nc2cc(O)c(-c3ccc4nc(N5CC[C@@H](NC6CC6)C5)ccc4n3)cc2o1 (single isomer, unassigned) [Compound 212, 6-{6-[3-(cyclopropylamino)pyrrolidin-1-yl]-1,5-naphthyridin-2-yl}-2-methyl-1,3-benzoxazol-5-ol]	> 7.00	< 100 nM	> 7.00	> 7.00	6.00 to 7.00
Cc1nc2c(C)c(O)c(-c3ccc4nc(N5CCC(NC(C)(C)C)C5)ccc4n3)cc2o1 (single isomer, unassigned) [Compound 214, 6-{6-[3-(tert-butylamino)pyrrolidin-1-yl]-1,5-naphthyridin-2-yl}-2,4-dimethyl-1,3-benzoxazol-5-ol]	> 7.00	< 100 nM	> 7.00	> 7.00	> 7.00
Cc1nc2c(C)c(O)c(-c3ccc4nc(N5CC[C@@H](NC(C)(C)C)C5)ccc4n3)cc2o1 (single isomer, unassigned) [Compound 215, 6-{6-[3-(tert-butylamino)pyrrolidin-1-yl]-1,5-naphthyridin-2-yl}-2,4-dimethyl-1,3-benzoxazol-5-ol]	> 7.00	< 100 nM	> 7.00	> 7.00	> 7.00
Cc1nc2c(C)c(O)c(-c3ccc4nc(N5CCC(NC6CC6)C5)ccc4n3)cc2o1 (single isomer, unassigned) [Compound 216, 6-{6-[3-(cyclopropylamino)pyrrolidin-1-yl]-1,5-naphthyridin-2-yl}-2,4-dimethyl-1,3-benzoxazol-5-ol]	> 7.00	< 100 nM	> 7.00	> 7.00	> 7.00
Cc1nc2c(C)c(O)c(-c3ccc4nc(N5CCC(NC6CC6)C5)ccc4n3)cc2o1 (single isomer, unassigned) [Compound 217, 6-{6-[3-(cyclopropylamino)pyrrolidin-1-yl]-1,5-naphthyridin-2-yl}-2,4-dimethyl-1,3-benzoxazol-5-ol]	> 7.00	< 100 nM	> 7.00	> 7.00	> 7.00
Cn1cc2cc(-c3ccc4nc(N5CC[C@@H](NC6(C)CC6)C5)ccc4n3)c(O)cc2n1 (single isomer, unassigned) [Compound 220]	> 7.00	< 100 nM	> 7.00	> 7.00	> 7.00
Cn1cc2cc(-c3ccc4nc(N5CC[C@H](NC6(C)CC6)C5)ccc4n3)c(O)cc2n1 (single isomer, unassigned) [Compound 221, 2-methyl-5-{6-[(35)-3-[(1-methylcyclopropyl)amino]pyrrolidin-1-yl]-1,5-naphthyridin-2-yl}indazol-6-ol]	> 7.00	< 100 nM	> 7.00	> 7.00	> 7.00
Cn1cc2cc(-c3ccc4nc(N5CC[C@H](NC6(C)CC6)C5)ccc4n3)c(O)c(F)c2n1 (single isomer, unassigned) [Compound 222, 7-fluoro-2-methyl-5-{6-[(3 S)-3-[(1-methylcyclopropyl)amino]pyrrolidin-1-yl]-1,5-naphthyridin-2-yl}indazol-6-ol]	> 7.00	< 100 nM	> 7.00	> 7.00	> 7.00
CN1CCC12CCN(c1ccc3nc(-c4cc5cn(C)nc5cc4O)ccc3n1)C2 (centres unmarked) [Compound 181, 2-methyl-5-(6-{1-methyl-1,6-diazaspiro[3.4]octan-6-yl}-1,5-naphthyridin-2-yl) indazol-6-ol]	6.00 to 7.00				
Cn1cc2cc(-c3ccc4nc(N5CCC(NC(C)(C)C)C5)ccc4n3)c(F)cc2n1 (centres unmarked) [Compound 183]	< 5.00				
